From ChEMBL document CHEMBL1201862, “PubChem BioAssay data set” (2004)
Active and inactive are the calls of the source. *1 amine or outer side, *2 acyl side, *3 side chain or, on linkers, in order; H or OH if unused. Where a SMILES comes first, the peptide text is derived from it. Bridges are numbered along the chain shown (N, C = ends). [ ]: non-standard residue; d: D form. ξ: configuration not given here. X1 = CC[C@H](CCC[C@@H](O)[C@@H](C)C(=O)O[C@H](C)[C@@H](C)C/C=C(C)/C(=C\C(=O)[*:1])OC)O[*:2]; NMeξIle = CC[C@H](C)C(NC)C(=O)O; NMeV = CN[C@H](C(=O)O)C(C)C; NMeS = CN[C@@H](CO)C(=O)O

Key:
[1] = non-specific 3'UTR reporter inhibition in Clone20-Shn3RL – cell-based, Renilla luciferase, cherry-picked, counter-screen for Shn3 inhibitor project, dose response (AID 624133); assay type: functional
cells = assay type: functional, cell-based; details: HEK-CNG
Protein skinhead-1 = molecular target: T1, Protein skinhead-1 (Caenorhabditis elegans, UniProt P34707); assay type: functional
T1 sequence (P34707 whole entry): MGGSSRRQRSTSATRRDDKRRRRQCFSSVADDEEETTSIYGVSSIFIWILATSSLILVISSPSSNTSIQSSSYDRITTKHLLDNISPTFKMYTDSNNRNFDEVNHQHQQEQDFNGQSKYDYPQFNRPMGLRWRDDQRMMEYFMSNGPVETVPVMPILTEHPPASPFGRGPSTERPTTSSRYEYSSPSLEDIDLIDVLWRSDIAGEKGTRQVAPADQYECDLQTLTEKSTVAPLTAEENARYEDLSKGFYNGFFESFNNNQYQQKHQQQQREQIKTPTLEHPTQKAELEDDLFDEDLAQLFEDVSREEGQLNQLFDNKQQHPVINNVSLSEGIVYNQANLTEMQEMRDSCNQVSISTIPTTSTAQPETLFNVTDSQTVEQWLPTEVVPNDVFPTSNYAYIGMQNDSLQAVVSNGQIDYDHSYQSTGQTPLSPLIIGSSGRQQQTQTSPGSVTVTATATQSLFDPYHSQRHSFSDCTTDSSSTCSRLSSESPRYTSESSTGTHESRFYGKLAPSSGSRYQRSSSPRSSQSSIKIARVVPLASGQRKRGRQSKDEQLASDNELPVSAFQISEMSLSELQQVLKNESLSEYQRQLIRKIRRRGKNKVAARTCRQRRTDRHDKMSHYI

Galanin receptor type 3 = Galanin receptor type 3 (Homo sapiens, UniProt O60755); assay: Fluorescence-based cell-based primary high throughput dose response assay to identify antagonists of the Galanin Receptor 3 (GalR3).; assay type: functional
[2] = reduction of Shn3 3'UTR-driven luciferase in osteoblasts – cell-based, Clone20 osteoblasts, firefly luciferase, cherry-picked, dose response (AID 624132); assay type: functional;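 also: firefly luciferase luminescence from reporter carrying the Shn3 3'UTR in osteoblasts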
Paired box protein Pax-8 = Paired box protein Pax-8 (Homo sapiens, UniProt Q06710); assay: PAX8 transcriptional activity inhibition in RMG-I – RMG-I cells, luciferase, cherry-pick, dose response (AID 687027); assay type: functional, cell-based;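 also: luciferase reporter driven by Pax8 target thyroperoxidase promoter measured by SteadyGlo luminescence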
[3] = HeLa cell viability loss – 24 h, dry powder, set 2, cytotoxicity control, dose response (AID 651774); assay type: functional, cell-based
[4] = Luminescence Cell-Based Dose Response HTS to Identify Activators of Luciferase Translation or Activity in H4 […] Cells. [Related pubchem assays: 1829 (Project Summary), 1814 (Primary HTS)]; assay type: functional
H4 = assay: Luminescence Cell-Based Dose Response HTS to Identify Activators of 5'UTR Stem-Loop Driven Prion Protein mRNA Translation in H4 Neuroglioblastoma Cells. [Related pubchem assays: 1829 (Project Summary), 1814 (Primary HTS)]; assay type: functional; details: Homo sapiens
[5] = Luminescence Cell-Based Dose Response to Identify Activators of Luciferase Translation or Activity in H4-C Neuroglioblastoma Cells. [Related pubchem assays: 1829 (Project Summary), 1814 (Primary HTS)]; assay type: functional
Caspase-6 [6] = molecular target: T2, Caspase-6 (Homo sapiens, UniProt P55212); assay: inhibition of CASP6 peptide cleavage – biochemical, VEID-R110 fluorescence, dry powder retest, dose response (AID 743332)
T2 sequence (P55212 whole entry): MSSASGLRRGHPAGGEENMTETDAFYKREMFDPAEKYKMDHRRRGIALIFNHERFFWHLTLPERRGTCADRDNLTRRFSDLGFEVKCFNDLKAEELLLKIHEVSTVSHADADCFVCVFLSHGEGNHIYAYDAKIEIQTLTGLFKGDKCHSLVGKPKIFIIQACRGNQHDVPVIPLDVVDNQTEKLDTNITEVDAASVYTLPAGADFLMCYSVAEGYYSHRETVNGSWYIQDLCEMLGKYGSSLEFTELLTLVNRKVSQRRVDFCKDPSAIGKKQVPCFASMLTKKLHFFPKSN

Caspase-7 = Caspase-7 (Homo sapiens, UniProt P55210); assay: caspase-7 enzyme inhibition, selectivity check – biochemical, DEVD-R110 fluorescence, cherry-pick, selectivity assay for caspase-6 inhibitor project, dose response (AID 743295); assay type: functional
INS1 = assay: INS-1E survival protection against cytokine death – cell-based, luminescence, retest, dose response (AID 449756); assay type: functional; details: Rattus norvegicus;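 also: cell death triggered by IL-1 beta plus TNF-alpha plus IFN-gamma mixture; protective hits raise ATP signal compared with cytokine alone wells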
Caspase-6 [7] = molecular target: T2, Caspase-6; assay: inhibition of CASP6 peptide cleavage – biochemical, VEID-R110 fluorescence, cherry-pick, dose response (AID 720632)
[8] = Luminescence Cell-Based Dose Confirmation to Identify Activators of 5'UTR Stem-Loop Driven Alpha-Synuclein mRNA Translation in H4 Neuroglioblastoma Cells. [Related pubchem assays: 1829 (Project Summary), 1814 (Primary HTS)]; assay type: functional
[9] = Luminescence Cell-Based Dose Response to Identify Activators of 5'UTR Stem-Loop Driven Prion Protein mRNA Translation in H4-C Neuroglioblastoma Cells. [Related pubchem assays: 1829 (Project Summary), 1814 (Primary HTS)]; assay type: functional
HeLa = assay: viability loss in HeLa cells – cell-based, ATP luminescence, cherry-pick samples, cytotoxicity control, dose response (AID 687004); assay type: functional; details: Homo sapiens

Chain of Paired box protein Pax-8 (Q06710 whole entry): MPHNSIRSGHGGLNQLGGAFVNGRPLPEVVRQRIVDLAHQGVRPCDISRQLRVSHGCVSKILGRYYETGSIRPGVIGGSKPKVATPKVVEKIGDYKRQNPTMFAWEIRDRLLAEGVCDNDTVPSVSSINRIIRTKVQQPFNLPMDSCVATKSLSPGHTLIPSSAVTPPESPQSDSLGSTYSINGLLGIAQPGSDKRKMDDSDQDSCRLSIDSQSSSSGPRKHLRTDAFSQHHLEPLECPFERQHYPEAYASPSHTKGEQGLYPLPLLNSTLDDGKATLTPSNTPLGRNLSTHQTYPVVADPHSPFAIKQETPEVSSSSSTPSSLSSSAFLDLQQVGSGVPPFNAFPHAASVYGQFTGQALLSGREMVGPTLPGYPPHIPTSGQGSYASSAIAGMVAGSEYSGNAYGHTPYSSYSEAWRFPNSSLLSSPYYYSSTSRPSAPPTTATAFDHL
Chain of Caspase-7 (P55210 24-198 limits assumed): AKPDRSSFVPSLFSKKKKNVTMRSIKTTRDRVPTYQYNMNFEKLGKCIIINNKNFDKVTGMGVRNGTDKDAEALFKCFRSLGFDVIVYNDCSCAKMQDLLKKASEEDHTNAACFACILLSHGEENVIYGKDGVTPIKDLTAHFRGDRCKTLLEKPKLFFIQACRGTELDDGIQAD
Chain of Caspase-7 (P55210 207-303 limits assumed): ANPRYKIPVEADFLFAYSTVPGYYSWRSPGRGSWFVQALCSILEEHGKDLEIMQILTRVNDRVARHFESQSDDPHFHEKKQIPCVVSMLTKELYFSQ
Chain of Galanin receptor type 3 (O60755 whole entry): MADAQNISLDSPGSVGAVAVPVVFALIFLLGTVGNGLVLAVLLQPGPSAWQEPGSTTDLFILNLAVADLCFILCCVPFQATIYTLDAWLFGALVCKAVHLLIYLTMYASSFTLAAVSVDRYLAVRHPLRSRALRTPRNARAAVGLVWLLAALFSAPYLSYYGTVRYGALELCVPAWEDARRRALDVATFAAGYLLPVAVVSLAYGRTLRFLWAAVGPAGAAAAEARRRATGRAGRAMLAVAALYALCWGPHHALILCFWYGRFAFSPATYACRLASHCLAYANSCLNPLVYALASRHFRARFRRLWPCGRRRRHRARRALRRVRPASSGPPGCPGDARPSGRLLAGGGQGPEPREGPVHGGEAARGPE

CC[C@@H]1CCC[C@@H](O)[C@@H](C)C(=O)O[C@H](C)[C@@H](C)C/C=C(C)/C(OC)=C\C(=O)N(C)C([C@@H](C)CC)C(=O)N(C)[C@@H](C(C)C)C(=O)N(C)[C@@H](COC)C(=O)N2CCC[C@H]2C(=O)N(C)[C@@H](C(C)C)C(=O)N2CCC[C@H]2C(=O)O1 (some centres not stated) ([NMeξIle][NMeV][NMeS](Me)P[NMeV]P; linker N-C via X1)
AC50 [1]: 0.317 µM (active) | EC50 (cells): > 29.9 µM (inactive) | IC50 (Protein skinhead-1): 57.6 µM (inactive) | IC50 (Galanin receptor type 3): 0.0171 µM (active) | AC50 [2]: < 0.26 µM (active) | AC50 (Paired box protein Pax-8): < 0.26 µM (active)

CCn1nnnc1NC(=O)c1ccc(N2CCCC2)cc1
AC50 [3]: 19.7 µM (active)

[O-][n+]1onc2c1CCc1c-2nn(-c2ccccc2Cl)[n+]1[O-]
EC50 [4]: < 0.1 µM (inconclusive) | EC50 (H4): > 120 µM (not active) | EC50 [5]: 1.41 µM (active) | AC50 (Caspase-6 [6]): 4.66 µM (active) | AC50 (Caspase-7): > 70 µM (inactive) | AC50 (INS1): 6.94 µM (active) | AC50 (Caspase-6 [7]): 0.651 µM (active) | EC50 [8]: 0.766 µM (active) | EC50 [9]: > 12 µM (not active)

COc1ccc(C(=O)NC(=S)Nc2ccccc2N2CCOCC2)cc1[N+](=O)[O-]
AC50 (HeLa): > 52 µM (inactive)
